Earlier results in US4127520A, “Novel nonadecapeptides, intermediates therefor, and compositions and methods employing said nonadecapeptides” (priority 1977, dated 1978).

What was measured:
[1] = test system: partially purified brain opiate receptor sites; conditions: natural peptide
[2] = injected directly into the brain of the rat

For “H-Tyr-Gly-Gly-Phe-Met-OH [methionine enkephalin]”, the “binding to partially purified brain opiate receptor sites” value [1] is listed as “binds stereo-specifically” and the analgesic activity [2] is listed as “only weak analgesic agent of short duration”.
